The values below come from patent US11345702B1 (Myoforte Therapeutics, Inc., priority 2020, dated 2022).

Several values for one entry are separate records, joined by “and”; a condition that tells them apart may be missing. Identical values can stand only once.

Sequence of 15-PGDH/HPGD (P15428 whole entry): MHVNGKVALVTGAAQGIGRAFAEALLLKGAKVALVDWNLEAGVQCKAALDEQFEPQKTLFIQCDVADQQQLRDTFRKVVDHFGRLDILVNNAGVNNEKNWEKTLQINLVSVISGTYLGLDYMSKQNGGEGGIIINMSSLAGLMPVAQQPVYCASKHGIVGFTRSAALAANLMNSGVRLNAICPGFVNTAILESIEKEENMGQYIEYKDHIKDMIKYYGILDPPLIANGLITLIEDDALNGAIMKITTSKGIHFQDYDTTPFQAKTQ

This assay concerns the target 15-PGDH/HPGD (Homo sapiens (Human), UniProt P15428). In words: hPGDH inhibitor screening biochemical assay. To be noted: read-out: hPGDH: Average IC50. As for the experimental part: A hydroxyprostaglandin dehydrogenase inhibition screening biochemical assay can be performed to assess the synthesized inhibitors provided herein. Provided herein is an exemplary biochemical assay for hPGDH inhibitor screening.
The in vitro biochemical assay can be performed in white, 384 plates in total 20 μl reaction volume consisting of 10 nM of 15-PGDH/HPGD (R&D System #5660-DH), 15 μM Prostaglandin E2 (Sigma, Cat #P5640-10MG) and 0.25 mM (3-Nicotinamide adenine dinucleotide sodium salt (Sigma, Cat #N0632-5G) made in reaction buffer (50 mM Tris-HCl, pH 7.5, 0.01% Tween 20) at 10-point dose response curve for test/tool compounds. Briefly, 5 μl (4×) of compounds solution and 5 μl (final concentration, 10 nM) of enzyme solution is added to white 384 well plates and incubated for 10 mins at 37° C. 5 μl (4×) of Prostaglandin E2 and 5 μl (4×) of β-Nicotinamide adenine dinucleotide sodium salt is added to the wells and incubated for 10 mins at room temperature. Fluorescence is recorded at ex/em=340 nm/485 nm. The percentage (%) inhibition of enzyme activity was determined relative to positive control (1% DMSO) and IC50 was calculated using GraphPad prism software (four parameter-variable slope equation).
With `O=C(O)[C@@H]1CCCN1C(=O)c1cccc(-n2ccc3cc(C(=O)N4CCC(F)(F)CC4)cnc32)c1` [MF-DH-489, (3-(5-(4,4-difluoropiperidine-1-carbonyl)-1H-pyrrolo[2,3-b]pyridin-1-yl)benzoyl)-L-proline], the IC50 was in the range of 100 to 1000 nM. As for `COc1ccc(-n2ccc3c(C#N)c(C(=O)N4CCCCC4)cnc32)cc1` [MF-DH-289, 1-(4-methoxyphenyl)-5-(piperidine-1-carbonyl)-1H-pyrrolo[2,3-b]pyridine-4-carbonitrile], the figure is under 100 nM. On to `COc1ccccc1C(=O)Nc1ccc(C(=O)N2CCC(F)(F)CC2)cc1` [MF-PGDH-087], for which the IC50 lay within 100 to 1000 nM.

`O=C(Nc1ccno1)c1ccc(-n2ccc3cc(C(=O)N4CCC(F)(F)CC4)cnc32)cn1`: the IC50 is under 100 nM. As for `CCC(CC)n1cnc2cc(C(=O)N3CCCCC3)cnc21` [MF-DH-236], the figure is 100 to 1000 nM; as for `COc1ccc(-n2ccc3cc(C(=O)N4CCN(CC(F)(F)F)CC4)cnc32)cc1` [MF-DH-327], at least 1000 nM; as for `CC(C)(O)c1ccc(-n2ccc3cc(C(=O)N4CCCCC4)cnc32)cc1` [MF-DH-371], under 100 nM. Take `O=C(c1cnc2c(ccn2-c2ccc(CO)cc2)c1)N1CCCCC1` [MF-DH-307]: the IC50 was under 100 nM.

`CCNC(=O)c1ccc(-n2ccc3cc(C(=O)N4CCC(F)(F)CC4)cnc32)nc1` [MF-DH-477, 6-(5-(4,4-difluoropiperidine-1-carbonyl)-1H-pyrrolo[2,3-b]pyridin-1-yl)-N-ethylnicotinamide]: the IC50 is under 100 nM. The value for `O=C(c1ccc(CS(=O)(=O)c2ccccc2Cl)cc1)N1CCCCC1` [MF-PGDH-040, (4-(((2-chlorophenyl)sulfonyl)methyl)phenyl)(piperidin-1-yl)methanone] was 100 to 1000 nM. Take `CC(C)(C#N)c1cncc(-n2ccc3cc(C(=O)N4CCC(F)(F)CC4)cnc32)c1` [MF-DH-509, 2-(5-(5-(4,4-difluoropiperidine-1-carbonyl)-1H-pyrrolo[2,3-b]pyridin-1-yl)pyridin-3-yl)-2-methylpropanenitrile]: the IC50 was under 100 nM. The value for `Cc1cn(-c2cnccn2)c2ccc(C(=O)N3CCC(F)CC3)cc12` [MF-DH-180, (4-fluoropiperidin-1-yl)(3-methyl-1-(pyrazin-2-yl)-1H-indol-5-yl)methanone] was 100 to 1000 nM. Regarding `CN(C)C(=O)c1ccc(-n2ccc3cc(C(=O)N4CCCCC4)cnc32)cc1` [MF-DH-369], the IC50 was under 100 nM. `Cc1nc2c(cc1C(=O)N1CCC(F)CC1)c(Cl)cn2-c1cnccn1` [MF-DH-149]: the IC50 is at least 1000 nM. Turning to `NC[C@@H]1CN(c2ccc(-n3ccc4cc(C(=O)N5CCC(F)(F)CC5)cnc43)cn2)C(=O)O1` [MF-DH-478], the IC50 was under 100 nM. `NC(=O)c1cncc(-n2ccc3cc(C(=O)N4CCC(F)CC4)cnc32)c1` [MF-DH-351]: the IC50 is under 100 nM.

On to `N#Cc1ccc(-n2ccc3cc(C(=O)N4CCC(F)(F)CC4)cnc32)cc1O` [MF-DH-441], for which the IC50 was under 100 nM. As for `O=C(c1cnc2c(ccn2-c2ccncn2)c1)N1CCCCC1` [MF-PGDH-069], the figure is under 100 nM.

Take `Cc1nc2c(ccn2-c2cnccn2)cc1C(=O)N1CCC(F)CC1` [MF-DH-148]: the IC50 was at least 1000 nM. As for `N#Cc1ccc(-n2ccc3cc(C(=O)N4CCCCC4)cnc32)cn1` [MF-DH-389], the figure is under 100 nM.

With `O=C(c1ccc(COc2ccccc2Cl)cc1)N1CCCCC1` [MF-PGDH-037], the IC50 was under 100 nM.

On to `O=C(c1cnc2c(ccn2-c2cccnc2)c1)N1CCC(F)CC1` [MF-DH-134], for which the IC50 is under 100 nM. The value for `O=C(O)c1cncc(-n2ccc3cc(C(=O)N4CCC(F)(F)CC4)cnc32)c1` [MF-DH-425, 5-(5-(4,4-difluoropiperidine-1-carbonyl)-1H-pyrrolo[2,3-b]pyridin-1-yl)nicotinic acid] was under 100 nM; that for `N#Cc1ccc(-n2ccc3cc(C(=O)N4C[C@H](F)C[C@H](F)C4)cnc32)cc1` [MF-DH-417, 4-(5-((3R,5S)-3,5-difluoropiperidine-1-carbonyl)-1H-pyrrolo[2,3-b]pyridin-1-yl)benzonitrile] was 100 to 1000 nM and < 100 nM; that for `NC[C@@H]1CN(c2cncc(-n3ccc4cc(C(=O)N5CCC(F)(F)CC5)cnc43)c2)C(=O)O1` [MF-DH-479] was under 100 nM. On to `COc1ccc(-n2c(CCC(C)(C)O)cc3cc(C(=O)N4CCCCC4)cnc32)cc1` [MF-DH-330, (2-(3-hydroxy-3-methylbutyl)-1-(4-methoxyphenyl)-1H-pyrrolo[2,3-b]pyridin-5-yl)(piperidin-1-yl)methanone], for which the IC50 is under 100 nM. Turning to `O=C(c1ccc2c(c1)ncn2-c1cccc(Cl)c1)N1CCC(F)(F)C1` [MF-PGDH-047], the 50% inhibitory concentration (IC50) is at least 1000 nM.

As to `O=C(c1ccc2c(c1)ncn2-c1cccc(Cl)c1)N1CCC(Cl)C1` (stereo not drawn) [MF-PGDH-049], the IC50 was under 100 nM. For `COCCNC(=O)c1ccc(-n2ccc3cc(C(=O)N4CCCCC4)cnc32)cc1` [MF-DH-367], the IC50 is under 100 nM.

As for `COc1ccc(-n2ccc3cc(C(=O)N4CCCCC4)cnc32)cc1` [MF-DH-297], the IC50 is under 100 nM. The value for `O=C(c1ccc2c(c1)ncn2-c1cccc(Cl)c1)N1CC2(CCC2)C1` [MF-PGDH-019] was under 100 nM. On to `CN(C(=O)c1ccc2c(c1)ncn2-c1cccc(Cl)c1)C1CC1` [MF-PGDH-064, 1-(3-chlorophenyl)-N-cyclopropyl-N-methyl-1H-benzo[d]imidazole-5-carboxamide], for which the IC50 was at least 1000 nM.

On to `COc1ccccc1NC(=O)c1ccc(C(=O)N2CCCCC2)cc1` [MF-PGDH-043, N-(2-methoxyphenyl)-4-(piperidine-1-carbonyl) benzamide], for which the IC50 was in the range of 100 to 1000 nM. As for `COc1ccc(-n2cnc3cc(C(=O)N4CC(F)C4)cnc32)cc1` [MF-DH-138], the figure is 100 to 1000 nM. As for `O=C(Nc1ccccc1)c1ccc2c(c1)ncn2-c1cccc(Cl)c1` [MF-PGDH-065], the figure is at least 1000 nM; as for `Cn1cc(-n2cc(Cl)c3cc(C(=O)N4CCC(F)CC4)cnc32)cn1` [MF-DH-140], under 100 nM. As for `Cc1cncc(-n2ccc3cc(C(=O)N4CCCCC4)cnc32)c1` [MF-DH-320], the figure is under 100 nM. For the molecule `CC(C)(C(N)=O)c1cncc(-n2ccc3cc(C(=O)N4CCC(F)(F)CC4)cnc32)c1` [MF-DH-487, 2-(5-(5-(4,4-difluoropiperidine-1-carbonyl)-1H-pyrrolo[2,3-b]pyridin-1-yl)pyridin-3-yl)-2-methylpropanamide], the IC50 was under 100 nM. In the case of `N#Cc1ccc(-n2ccc3nc(C(=O)N4CCC(F)CC4)ccc32)cc1` [MF-DH-462, 4-(5-(4-fluoropiperidine-1-carbonyl)-1H-pyrrolo[3,2-b]pyridin-1-yl)benzonitrile], the IC50 is at least 1000 nM. As for `CN(C)c1ccc(-n2ccc3cc(C(=O)N4CCC(F)CC4)cnc32)cc1` [MF-DH-346], the figure is under 100 nM; as for `O=C(c1cnc2c(c1)c(Cl)cn2-c1ccc2c(c1)OC(F)(F)O2)N1CCCCC1` [MF-DH-251], under 100 nM; as for `O=C(c1cnc2c(ccn2-c2c[nH]cn2)c1)N1CCCCC1` [MF-PGDH-075], under 100 nM. The value for `NC(=O)c1cncc(-n2ccc3cc(C(=O)N4CCCCC4)cnc32)c1` [MF-DH-361] was under 100 nM. As for `COc1ccc(-n2cc(Cl)c3cc(C(=O)N4CCC(F)CC4)cnc32)cc1` [MF-DH-191, (3-chloro-1-(4-methoxyphenyl)-1H-pyrrolo[2,3-b]pyridin-5-yl)(4-fluoropiperidin-1-yl)methanone], the figure is under 100 nM. With `N#Cc1ccc(-n2cc(Cl)c3cc(C(=O)N4CCC(F)CC4)cnc32)cc1` [MF-DH-388], the IC50 is under 100 nM.

For `CN(C)c1ccc(-n2ccc3cc(C(=O)N4CCCCC4)cnc32)cc1` [MF-DH-305], the IC50 was under 100 nM. The value for `COc1ccc(-n2cnc3cc(C(=O)N4CCCCC4)ccc32)cc1Cl` [MF-PGDH-024, (1-(3-chloro-4-methoxyphenyl)-1H-benzo[d]imidazol-5-yl)(piperidin-1-yl)methanone] was under 100 nM; that for `Cc1cc(-n2ccc3cc(C(=O)N4CCCCC4)cnc32)cnc1N` [MF-DH-392] was under 100 nM. The value for `O=C(NC1(C(=O)O)CC1)c1ccc(-n2ccc3cc(C(=O)N4CCC(F)(F)CC4)cnc32)cn1` [MF-DH-430, 1-(5-(5-(4,4-difluoropiperidine-1-carbonyl)-1H-pyrrolo[2,3-b]pyridin-1-yl)picolinamido)cyclopropane-1-carboxylic acid] was under 100 nM; that for `O=C(c1cnc2c(ccn2-c2cccc(Cl)c2)c1)N1CCCCC1` [MF-PGDH-014] was under 100 nM. The value for `O=C(c1ccc2c(c1)ncn2-c1cccc(Cl)c1)N1CCCCC1` [MF-PGDH-023] was under 100 nM; that for `O=C(c1ccc2c(c1)ncn2-c1cccc(Cl)c1)N1CCC(O)CC1` [MF-PGDH-052] was 100 to 1000 nM; that for `O=C(c1ccc2c(c1)ncn2-c1cccc(Cl)c1)N1CC(F)C1` [MF-PGDH-106] was under 100 nM. For `O=C(c1ccc2c(c1)ncn2-c1ccc2c(c1)OCO2)N1CCCCC1` [MF-PGDH-062], the IC50 was under 100 nM. Take `Nc1cncc(-n2ccc3cc(C(=O)N4CCCCC4)cnc32)c1` [MF-DH-322]: the IC50 was under 100 nM.

Take `NC(=O)c1ccc(-n2ccc3cc(C(=O)N4CCC(F)CC4)cnc32)cn1` [MF-DH-355]: the IC50 is under 100 nM. Regarding `O=C(c1cnc2c(c1)c(Cl)cn2-c1cccnc1)N1CCC(F)CC1` [MF-DH-135], the IC50 was under 100 nM.

Usually IC50 stands for the concentration at which inhibition is half-maximal.
